Like-named read-outs stand apart in the source and are kept apart here.
Assays:
Assay in all cases: Sensitivity test (agar dilution)
P. aeruginosa TL-2667 = type: cell-based, Pseudomonas aeruginosa; settings: Pseudomonas aeruginosa
Outline: (§1)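 Water-dissolved compounds, alone or mixed, were incorporated into Mueller Hinton agar at twofold serial concentrations. Spot inoculation used about 5 μl of about 10^6 CFU/ml suspension.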

S. maltophilia IID1275 = type: cell-based, Stenotrophomonas maltophilia; settings: Stenotrophomonas maltophilia
Outline: as §1

M. catarrhalis ATCC25238 = type: cell-based, Moraxella catarrhalis; settings: Moraxella catarrhalis
Outline: as §1

M. catarrhalis ATCC8176 = type: cell-based, Moraxella catarrhalis; settings: Moraxella catarrhalis
Outline: as §1

C[C@H]1C=C(c2csc(SC3=C(C(=O)O)N4C(=O)[C@H]([C@@H](C)O)[C@H]4[C@H]3C)n2)CN1 [SM, (4R,5S,6S)-6-[(1R)-1-Hydroxyethyl]-4-methyl-3-({4-[(5S)-5-methyl-2,5-dihydro-1H-pyrrol-3-yl]-1,3-thiazol-2-yl}sulfanyl)-7-oxo-1-azabicyclo[3.2.0]hept-2-ene-2-carboxylic acid]
MIC (P. aeruginosa TL-2667; TL2667, Concomitant (MEPM:SM = 1:4), read-out: MIC): 8 µg/mL | MIC (P. aeruginosa TL-2667; TL2667, Concomitant (PAPM:SM = 1:1), P. aeruginosa TL-2667, read-out: MIC concomitant): 16 µg/mL | MIC (P. aeruginosa TL-2667; TL2667, Concomitant (PIPC:SM = 1:1), P. aeruginosa TL-2667, read-out: MIC concomitant): 16 µg/mL | MIC (P. aeruginosa TL-2667; TL2667, Concomitant drug (MEPM:SM = 2:1), read-out: MIC): 2 µg/mL | MIC (P. aeruginosa TL-2667; TL2667, alone, read-out: MIC): 16 µg/mL | MIC (P. aeruginosa TL-2667; TL2667, drug alone, P. aeruginosa TL-2667, read-out: MIC alone): 16 µg/mL | MIC (S. maltophilia IID1275; IID1275, Concomitant (AZT:SM = 1:1), S. maltophilia IID1275, read-out: MIC concomitant): > 32 µg/mL | MIC (S. maltophilia IID1275; IID1275, Concomitant (BIPM:SM = 1:1), S. maltophilia IID1275, read-out: MIC concomitant): > 32 µg/mL | MIC (S. maltophilia IID1275; IID1275, Concomitant (CAZ:SM = 1:1), S. maltophilia IID1275, read-out: MIC concomitant): > 32 µg/mL | MIC (S. maltophilia IID1275; IID1275, Concomitant (CPFX:SM = 1:1), S. maltophilia IID1275, read-out: MIC concomitant): 1 µg/mL | MIC (S. maltophilia IID1275; IID1275, Concomitant (DRPM:SM = 1:1), S. maltophilia IID1275, read-out: MIC concomitant): > 32 µg/mL | MIC (S. maltophilia IID1275; IID1275, Concomitant (IPM:SM = 1:1), read-out: MIC): > 32 µg/mL | MIC (S. maltophilia IID1275; IID1275, Concomitant (MEPM:SM = 1:1), read-out: MIC): > 32 µg/mL | MIC (S. maltophilia IID1275; IID1275, Concomitant (MEPM:SM = 1:2), read-out: MIC): > 64 µg/mL | MIC (S. maltophilia IID1275; IID1275, Concomitant (MEPM:SM = 1:4), read-out: MIC): > 128 µg/mL | MIC (S. maltophilia IID1275; IID1275, Concomitant (PAPM:SM = 1:1), S. maltophilia IID1275, read-out: MIC concomitant): > 32 µg/mL | MIC (S. maltophilia IID1275; IID1275, Concomitant (PIPC:SM = 1:1), S. maltophilia IID1275, read-out: MIC concomitant): > 32 µg/mL | MIC (S. maltophilia IID1275; IID1275, Concomitant drug (MEPM:SM = 2:1), read-out: MIC): > 16 µg/mL | MIC (S. maltophilia IID1275; IID1275, drug alone, S. maltophilia IID1275, read-out: MIC alone): > 32 µg/mL | MIC (M. catarrhalis ATCC25238; ATCC25238, Concomitant (AZT:SM = 1:1), M. catarrhalis ATCC25238, read-out: MIC concomitant): ≤ 0.002 µg/mL | MIC (M. catarrhalis ATCC25238; ATCC25238, Concomitant (BIPM:SM = 1:1), M. catarrhalis ATCC25238, read-out: MIC concomitant): ≤ 0.002 µg/mL | MIC (M. catarrhalis ATCC25238; ATCC25238, Concomitant (CAZ:SM = 1:1), M. catarrhalis ATCC25238, read-out: MIC concomitant): ≤ 0.002 µg/mL | MIC (M. catarrhalis ATCC25238; ATCC25238, Concomitant (CPFX:SM = 1:1), M. catarrhalis ATCC25238, read-out: MIC concomitant): ≤ 0.002 µg/mL | MIC (M. catarrhalis ATCC25238; ATCC25238, Concomitant (DRPM:SM = 1:1), M. catarrhalis ATCC25238, read-out: MIC concomitant): ≤ 0.002 µg/mL | MIC (M. catarrhalis ATCC25238; ATCC25238, Concomitant (IPM:SM = 1:1), read-out: MIC): ≤ 0.002 µg/mL | MIC (M. catarrhalis ATCC25238; ATCC25238, Concomitant (MEPM:SM = 1:1), read-out: MIC): ≤ 0.016 µg/mL | MIC (M. catarrhalis ATCC25238; ATCC25238, Concomitant (MEPM:SM = 1:2), read-out: MIC): ≤ 0.031 µg/mL | MIC (M. catarrhalis ATCC25238; ATCC25238, Concomitant (MEPM:SM = 1:4), read-out: MIC): ≤ 0.063 µg/mL | MIC (M. catarrhalis ATCC25238; ATCC25238, Concomitant (PAPM:SM = 1:1), M. catarrhalis ATCC25238, read-out: MIC concomitant): ≤ 0.002 µg/mL | MIC (M. catarrhalis ATCC25238; ATCC25238, Concomitant (PIPC:SM = 1:1), M. catarrhalis ATCC25238, read-out: MIC concomitant): ≤ 0.002 µg/mL | MIC (M. catarrhalis ATCC25238; ATCC25238, Concomitant drug (MEPM:SM = 2:1), read-out: MIC): ≤ 0.008 µg/mL | MIC (M. catarrhalis ATCC25238; ATCC25238, drug alone, M. catarrhalis ATCC25238, read-out: MIC alone): ≤ 0.002 µg/mL | MIC (M. catarrhalis ATCC8176; ATCC8176, Concomitant (AZT:SM = 1:1), M. catarrhalis ATCC8176, read-out: MIC concomitant): ≤ 0.002 µg/mL | MIC (M. catarrhalis ATCC8176; ATCC8176, Concomitant (BIPM:SM = 1:1), M. catarrhalis ATCC8176, read-out: MIC concomitant): ≤ 0.002 µg/mL | MIC (M. catarrhalis ATCC8176; ATCC8176, Concomitant (CAZ:SM = 1:1), M. catarrhalis ATCC8176, read-out: MIC concomitant): ≤ 0.002 µg/mL | MIC (M. catarrhalis ATCC8176; ATCC8176, Concomitant (CPFX:SM = 1:1), M. catarrhalis ATCC8176, read-out: MIC concomitant): ≤ 0.002 µg/mL | MIC (M. catarrhalis ATCC8176; ATCC8176, Concomitant (DRPM:SM = 1:1), M. catarrhalis ATCC8176, read-out: MIC concomitant): ≤ 0.002 µg/mL | MIC (M. catarrhalis ATCC8176; ATCC8176, Concomitant (IPM:SM = 1:1), read-out: MIC): ≤ 0.002 µg/mL | MIC (M. catarrhalis ATCC8176; ATCC8176, Concomitant (MEPM:SM = 1:1), read-out: MIC): ≤ 0.016 µg/mL | MIC (M. catarrhalis ATCC8176; ATCC8176, Concomitant (MEPM:SM = 1:2), read-out: MIC): ≤ 0.031 µg/mL | MIC (M. catarrhalis ATCC8176; ATCC8176, Concomitant (MEPM:SM = 1:4), read-out: MIC): ≤ 0.063 µg/mL | MIC (M. catarrhalis ATCC8176; ATCC8176, Concomitant (PAPM:SM = 1:1), M. catarrhalis ATCC8176, read-out: MIC concomitant): ≤ 0.002 µg/mL | MIC (M. catarrhalis ATCC8176; ATCC8176, Concomitant (PIPC:SM = 1:1), M. catarrhalis ATCC8176, read-out: MIC concomitant): ≤ 0.002 µg/mL | MIC (M. catarrhalis ATCC8176; ATCC8176, Concomitant drug (MEPM:SM = 2:1), read-out: MIC): ≤ 0.008 µg/mL | MIC (M. catarrhalis ATCC8176; ATCC8176, drug alone, M. catarrhalis ATCC8176, read-out: MIC alone): ≤ 0.002 µg/mL
